Experimental data: paper PMC6697720, “Saturation of acyl chains converts cardiolipin from an antagonist to an activator of Toll-like receptor-4” (Cellular and Molecular Life Sciences: CMLS, 2019)

Key:
primary human monocytes = test: TNF-α and IL-1β secretion in primary human monocytes incubated with CL; assay type: cell-based; settings: CL alone, overnight
Description: Human monocytes were isolated from PBMCs by immunomagnetic negative selection using the EasySep™ human monocyte enrichment kit without CD16 depletion (STEMCELL™ Technologies).
100.000 of freshly isolated PBMCs or monocytes were mixed with stimulants to a final volume of 160 μL/well in round bottom 96-well plates.
(§1) After stimulation, supernatants were collected, centrifuged, and assayed for cytokine secretion, while cells were assayed for viability.
TNF-α and IP-10 were quantified in cell supernatants using DuoSet ELISA kits from R&D Systems and human IL-1β using Instant ELISA™ Kit from Invitrogen, according to the manufacturer’s instructions. Absorbance was read with a BioTek Synergy HT Microplate Readers.
Fig. 3 Saturated but not unsaturated CLs have pro-inflammatory properties. a RAW-Blue™ cells were incubated overnight with the indicated amount of CL or LPS, supernatants were collected, and NF-κB activation quantified via Quanti-Blue™ test and reported here as fold induction as compared to control. Unpaired t test: differences with respect to the control (Ctrl) are not significant if p > 0.05 (no symbol); *p ≤ 0.0007. b Immortalized BMDM cells were incubated overnight with the indicated amount of CL or LPS; supernatants were collected and TNF-α quantified via ELISA assay. c, d Primary human monocytes were incubated overnight with the indicated amount of CL or LPS with or without the NLRP3 inhibitor MCC950, supernatants were collected, and TNF-α and IL-1β were quantified via ELISA assay. Graphs are representative of experiments from six different donors. Unpaired t test: differences with respect to the control (Ctrl) are not significant if p > 0.05 (no symbol); *p ≤ 0.021. Each bar represents the mean + standard deviation of three biological replicates (n = 3). Graphs are representative of at least three independent experiments
C18:0 and C18:2 CLs’ pro-inflammatory activities were validated in primary monocytes isolated from human donor blood. C18:0 CL but not C18:2 CL reproduced LPS activity inducing TNF-α and IL-1β secretion in a dose-dependent manner (Fig. 3c, d).

primary BMDM cells = test: TNF-α and IP-10 secretion in primary BMDMs incubated with CL or LPS alone; assay type: cell-based, murine; settings: overnight
Description: Bone marrow was isolated from femurs and tibias of 10-week-old C57BL/6 mice killed by cervical dislocation. Briefly, bone marrow was flushed out with a syringe filled with DMEM, pelleted down, and resuspended and homogenized in complete medium (DMEM supplemented with 10% heat-inactivated FBS from South America, 2 mM glutamine, 50 U/mL penicillin, 50 μg/mL streptomycin, and 20% of supernatant taken from L929 cells). The cell suspension generated thereafter was then maintained in petri dishes for 7 days.
Primary BMDM cells were detached from petri dishes and seeded the day before the experiment in 96-well plates at 0.75 × 10^6 cells/mL (200 μL/well).
as §1
TNF-α and IP-10 were quantified in cell supernatants using DuoSet ELISA kits from R&D Systems and human IL-1β using Instant ELISA™ Kit from Invitrogen, according to the manufacturer’s instructions. Absorbance was read with a BioTek Synergy HT Microplate Readers. […]
Primary BMDM cells were incubated overnight with medium (ctrl) or C14:0 CL at the indicated concentrations. TNF-α and IP-10 were measured by ELISA in collected supernatants. […]

| SMILES | IL-1β secretion (primary human monocytes) | TNF-α secretion (primary human monocytes) | IP-10 secretion (primary BMDM cells) | TNF-α secretion (primary BMDM cells) |
| --- | --- | --- | --- | --- |
| CCCCCCCCCCCCCCCCCC(=O)OC[C@H](COP(=O)(O)OCC(O)COP(=O)(O)OC[C@@H](COC(=O)CCCCCCCCCCCCCCCCC)OC(=O)CCCCCCCCCCCCCCCCC)OC(=O)CCCCCCCCCCCCCCCCC (stereo partly shown) [C18:0 CL] | inducing | inducing | – | – |
| CCCCCCCCCCCCCC(=O)OC[C@H](COP(=O)(O)OCC(O)COP(=O)(O)OC[C@@H](COC(=O)CCCCCCCCCCCCC)OC(=O)CCCCCCCCCCCCC)OC(=O)CCCCCCCCCCCCC (stereo partly shown) [C14:0 CL] | – | – | induces | induces |
